Measured values as given in patent US10004732B2 (Novartis AG, priority 2014, dated 2018).

Key:
PI 3-kinase delta [1] = molecular target: T1, PI 3-kinase delta (Homo sapiens, UniProt O00329); assay: Cellular assay J1, p-Akt (S473) in Rat-1 cells, Surefire format; type: cell-based; conditions: non-asterisked data: version J1 (Surefire format), Rat-1 cells; read-out: Assay J PI3Kδ IC50
Target sequence in this assay (O00329 whole entry): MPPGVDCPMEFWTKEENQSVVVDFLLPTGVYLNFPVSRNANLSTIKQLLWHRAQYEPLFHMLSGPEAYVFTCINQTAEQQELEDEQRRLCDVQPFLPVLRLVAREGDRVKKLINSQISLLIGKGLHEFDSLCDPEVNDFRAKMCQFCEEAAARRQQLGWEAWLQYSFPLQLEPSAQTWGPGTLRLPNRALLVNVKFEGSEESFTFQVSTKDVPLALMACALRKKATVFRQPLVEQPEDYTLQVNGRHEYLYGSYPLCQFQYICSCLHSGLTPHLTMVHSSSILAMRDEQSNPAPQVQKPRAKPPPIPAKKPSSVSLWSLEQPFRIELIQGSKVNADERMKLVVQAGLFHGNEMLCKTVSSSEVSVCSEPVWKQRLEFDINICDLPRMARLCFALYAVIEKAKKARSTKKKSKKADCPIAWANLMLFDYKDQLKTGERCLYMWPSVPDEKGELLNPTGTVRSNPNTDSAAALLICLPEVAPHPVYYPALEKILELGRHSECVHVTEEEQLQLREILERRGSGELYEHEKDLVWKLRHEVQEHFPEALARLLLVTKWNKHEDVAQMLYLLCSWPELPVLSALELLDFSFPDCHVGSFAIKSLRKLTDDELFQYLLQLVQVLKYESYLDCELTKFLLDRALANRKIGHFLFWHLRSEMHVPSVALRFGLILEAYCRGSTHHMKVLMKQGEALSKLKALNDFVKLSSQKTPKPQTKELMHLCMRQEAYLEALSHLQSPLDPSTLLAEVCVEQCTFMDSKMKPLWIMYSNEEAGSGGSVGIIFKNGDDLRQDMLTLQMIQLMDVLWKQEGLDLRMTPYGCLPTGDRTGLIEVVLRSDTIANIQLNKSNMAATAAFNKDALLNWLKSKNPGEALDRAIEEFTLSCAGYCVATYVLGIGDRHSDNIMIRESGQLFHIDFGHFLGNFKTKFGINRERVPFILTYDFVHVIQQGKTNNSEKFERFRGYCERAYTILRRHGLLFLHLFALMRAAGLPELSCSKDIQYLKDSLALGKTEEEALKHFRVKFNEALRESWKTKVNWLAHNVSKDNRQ
Target sequence in this assay (Q63787 whole entry partner): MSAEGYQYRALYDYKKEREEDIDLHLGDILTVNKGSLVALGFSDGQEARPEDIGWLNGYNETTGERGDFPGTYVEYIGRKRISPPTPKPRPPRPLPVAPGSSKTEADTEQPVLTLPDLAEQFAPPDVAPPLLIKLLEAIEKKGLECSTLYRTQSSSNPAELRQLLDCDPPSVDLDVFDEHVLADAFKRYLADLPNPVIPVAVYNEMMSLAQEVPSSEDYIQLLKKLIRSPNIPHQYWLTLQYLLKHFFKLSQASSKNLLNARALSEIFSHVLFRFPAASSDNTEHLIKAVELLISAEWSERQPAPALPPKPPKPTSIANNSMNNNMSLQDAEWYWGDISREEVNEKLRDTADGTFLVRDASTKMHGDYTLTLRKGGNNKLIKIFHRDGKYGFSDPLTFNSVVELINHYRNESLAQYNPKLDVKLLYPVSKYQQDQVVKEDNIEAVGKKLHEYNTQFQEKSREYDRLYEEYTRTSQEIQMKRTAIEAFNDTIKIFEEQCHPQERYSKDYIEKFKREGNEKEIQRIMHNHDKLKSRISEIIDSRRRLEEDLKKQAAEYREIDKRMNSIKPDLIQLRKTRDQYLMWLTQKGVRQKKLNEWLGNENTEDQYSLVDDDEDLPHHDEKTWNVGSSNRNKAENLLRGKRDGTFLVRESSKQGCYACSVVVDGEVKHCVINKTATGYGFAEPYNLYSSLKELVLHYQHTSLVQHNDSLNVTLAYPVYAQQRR

PI 3-kinase alpha [2] = molecular target: T2, PI 3-kinase alpha (Homo sapiens, UniProt P42336); assay: Kinase Glo Luminescent Kinase Assay (Kglo), assay A; type: biochemical; conditions: read-out: Assay A PI3Kα IC50
Target sequence in this assay (P42336 whole entry): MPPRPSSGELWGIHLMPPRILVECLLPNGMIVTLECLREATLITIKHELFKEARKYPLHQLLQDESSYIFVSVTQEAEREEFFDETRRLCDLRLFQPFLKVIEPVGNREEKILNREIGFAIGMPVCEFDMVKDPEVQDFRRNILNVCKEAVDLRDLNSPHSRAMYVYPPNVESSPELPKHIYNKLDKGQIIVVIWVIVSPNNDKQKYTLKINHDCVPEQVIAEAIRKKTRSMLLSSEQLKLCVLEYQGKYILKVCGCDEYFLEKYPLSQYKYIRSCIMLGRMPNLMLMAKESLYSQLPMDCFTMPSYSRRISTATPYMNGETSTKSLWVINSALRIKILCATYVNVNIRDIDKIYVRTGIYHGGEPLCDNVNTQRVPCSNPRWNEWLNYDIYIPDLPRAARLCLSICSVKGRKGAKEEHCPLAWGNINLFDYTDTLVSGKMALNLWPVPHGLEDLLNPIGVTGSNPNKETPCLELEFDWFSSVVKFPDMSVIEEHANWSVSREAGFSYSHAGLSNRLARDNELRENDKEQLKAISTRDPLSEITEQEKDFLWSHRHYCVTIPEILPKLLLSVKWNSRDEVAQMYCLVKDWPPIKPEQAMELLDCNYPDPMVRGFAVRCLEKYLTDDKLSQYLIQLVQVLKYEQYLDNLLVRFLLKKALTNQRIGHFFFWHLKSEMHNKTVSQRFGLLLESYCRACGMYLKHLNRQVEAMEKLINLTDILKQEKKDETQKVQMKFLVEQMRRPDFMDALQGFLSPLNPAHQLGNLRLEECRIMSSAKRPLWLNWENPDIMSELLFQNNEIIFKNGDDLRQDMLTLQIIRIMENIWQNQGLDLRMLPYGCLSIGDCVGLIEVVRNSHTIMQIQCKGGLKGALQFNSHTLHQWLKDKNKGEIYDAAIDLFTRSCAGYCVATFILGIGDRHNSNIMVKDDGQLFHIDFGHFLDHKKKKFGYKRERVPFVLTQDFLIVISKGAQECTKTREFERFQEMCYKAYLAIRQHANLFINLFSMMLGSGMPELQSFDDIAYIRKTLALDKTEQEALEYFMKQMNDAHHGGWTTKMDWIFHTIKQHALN

[3] = Microsomal clearance assay (M); conditions: intrinsic clearance in rat liver microsomes
Protocol: The experiments were performed in 96-well glass plates at 37° C. on an automated Tecan EVO platform. Test compounds at a concentration of 10 mM in pure DMSO were diluted 1:1000 in water to 10 μM. […] Reactions were initiated by the addition of 150 μL of a cofactor solution containing 2 mM NADPH.

PI 3-kinase delta [4] = molecular target: T1, PI 3-kinase delta; assay: TR-FRET Adapta assay, assay F; conditions: read-out: Assay F PI3Kδ IC50
Target sequence in this assay (O00329 whole entry): as the sequence (O00329 whole entry) above
Target sequence in this assay (P27986 461-568 partner): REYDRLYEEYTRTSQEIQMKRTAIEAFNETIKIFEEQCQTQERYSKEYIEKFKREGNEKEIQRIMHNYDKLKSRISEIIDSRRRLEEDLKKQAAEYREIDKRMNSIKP

PI 3-kinase gamma [5] = molecular target: T3, PI 3-kinase gamma (Homo sapiens, UniProt P48736); assay: TR-FRET Adapta assay, assay E; type: biochemical; conditions: read-out: Assay E PI3Kγ IC50
PI 3-kinase beta [6] = molecular target: T4, PI 3-kinase beta (Homo sapiens, UniProt P42338); assay: Cellular assay I1, p-Akt (S473) in Rat-1 cells, Surefire format; type: cell-based; conditions: non-asterisked data: version I1 (Surefire format), Rat-1 cells; read-out: Assay I PI3Kβ IC50
PI 4-kinase beta = PI 4-kinase beta (Homo sapiens, UniProt Q9UBF8); assay: Kinase Glo Luminescent Kinase Assay (Kglo), assay D; type: biochemical; conditions: read-out: Assay D PI4Kβ IC50
PI 3-kinase alpha [7] = molecular target: T2, PI 3-kinase alpha; assay: Cellular assay H1, p-Akt (S473) in Rat-1 cells, Surefire format; type: cell-based; conditions: non-asterisked data: version H1 (Surefire format), Rat-1 cells; read-out: Assay H PI3Kα IC50
Target sequence in this assay (P42336 whole entry): as the sequence (P42336 whole entry) above
Target sequence in this assay (Q63787 whole entry partner): as the sequence (Q63787 whole entry partner) above

[8] = test system: IL-8-induced neutrophil shape change in human whole blood; assay: Whole blood neutrophil shape change assay (L); type: cell-based; conditions: Homo sapiens, Neutrophil, IL-8, human whole blood, read-out: Assay L WBSC IC50
Vps34 = Vps34 (Homo sapiens, UniProt Q8NEB9); assay: Kinase Glo Luminescent Kinase Assay (Kglo), assay C; type: biochemical; conditions: read-out: Assay C VPS34 IC50
Protocol: (§1) Kinase Glo Luminescent Kinase Assay (Kglo) for Pb 3-Kinase Alpha (A), Pb 3-Kinase Beta (B), Vps34 (C), Pb 4-Kinase Beta (D)
(§2) The Kinase Glo Luminescent Kinase Assay (Promega, Madison/Wis., USA) is a homogeneous HTS method of measuring kinase activity by quantifying the amount of ATP remaining in solution following a kinase reaction.
(§3) L-α-phosphatidylinositol (PI), provided as 10 mg/ml solution in methanol, was transferred into a glass tube and dried under a nitrogen beam. It was then resuspended in 3% OctylGlucoside (1-0-n-octyl-beta-D-glucopyranoside) by vortexing and stored at 4° C. 5 μL of a mix of PI/OctylGlucoside with the PI 3-kinase alpha and PI 3-kinase beta subtypes, or Vps34 or PI 4-kinase beta were added. Kinase reactions were started by the addition of 5 μl of an ATP-mix containing in a final volume 10 μL 10 mM TRIS-HCl pH 7.5, 3 mM MgCl2, 50 mM NaCl, 0.05% CHAPS, 1 mM DTT and 1 μM ATP at room temperature.
(§4) All fits were performed with the program XLfit4 (ID Business Solutions, Guildford, UK).

PI 3-kinase gamma [9] = molecular target: T3, PI 3-kinase gamma; assay: Cellular U937 AKT assay K1 (MSD); type: cell-based; conditions: U937 cells, K1 format; read-out: Assay K1 PI3Kγ IC50
mTOR = mTOR (Homo sapiens, UniProt P42345); assay: Lanthascreen kinase binding assay, assay G; conditions: read-out: Assay G mTOR IC50
Protocol: Lanthascreen™ Kinase Binding Assay for mTOR (G)
Binding of an inhibitor to the kinase competes for binding with the tracer, resulting in a loss of FRET.
50 nL of compound dilutions were dispensed onto white 384-well small volume polystyrene plate.

PI 3-kinase beta [10] = molecular target: T4, PI 3-kinase beta; assay: Kinase Glo Luminescent Kinase Assay (Kglo), assay B; type: biochemical; conditions: read-out: Assay B PI3Kβ IC50
Protocol: as §1, §2, §3, §4

T3 sequence (P48736 whole entry): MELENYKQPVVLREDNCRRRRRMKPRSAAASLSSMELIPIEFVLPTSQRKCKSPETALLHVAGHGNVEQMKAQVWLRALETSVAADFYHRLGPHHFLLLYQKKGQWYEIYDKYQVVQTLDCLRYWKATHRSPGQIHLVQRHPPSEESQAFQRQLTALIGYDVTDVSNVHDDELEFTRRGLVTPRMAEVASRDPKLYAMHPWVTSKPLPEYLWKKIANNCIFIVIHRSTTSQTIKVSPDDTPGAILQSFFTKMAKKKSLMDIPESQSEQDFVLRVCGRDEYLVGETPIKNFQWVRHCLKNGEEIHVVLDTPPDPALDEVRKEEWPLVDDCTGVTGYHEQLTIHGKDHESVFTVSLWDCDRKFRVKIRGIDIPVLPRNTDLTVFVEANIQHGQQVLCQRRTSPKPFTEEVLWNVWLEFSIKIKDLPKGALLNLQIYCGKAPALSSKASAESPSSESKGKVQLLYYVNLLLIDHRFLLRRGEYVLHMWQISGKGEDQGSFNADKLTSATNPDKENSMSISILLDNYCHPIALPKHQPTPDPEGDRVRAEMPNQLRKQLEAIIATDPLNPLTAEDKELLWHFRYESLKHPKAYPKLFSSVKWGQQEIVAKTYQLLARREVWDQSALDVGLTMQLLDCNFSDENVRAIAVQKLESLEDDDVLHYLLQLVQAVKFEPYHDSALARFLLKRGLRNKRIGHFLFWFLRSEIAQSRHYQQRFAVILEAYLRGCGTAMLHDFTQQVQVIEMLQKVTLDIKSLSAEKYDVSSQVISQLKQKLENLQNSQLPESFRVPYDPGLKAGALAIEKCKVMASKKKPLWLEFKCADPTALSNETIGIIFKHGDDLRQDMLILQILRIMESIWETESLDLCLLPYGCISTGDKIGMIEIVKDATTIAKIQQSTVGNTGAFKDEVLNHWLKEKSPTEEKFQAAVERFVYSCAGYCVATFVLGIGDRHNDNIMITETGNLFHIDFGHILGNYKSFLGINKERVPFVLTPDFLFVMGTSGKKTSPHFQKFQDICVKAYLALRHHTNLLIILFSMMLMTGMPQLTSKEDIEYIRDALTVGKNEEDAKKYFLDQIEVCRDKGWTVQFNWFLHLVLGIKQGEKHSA
PI 4-kinase beta, sequence (Q9UBF8 whole entry): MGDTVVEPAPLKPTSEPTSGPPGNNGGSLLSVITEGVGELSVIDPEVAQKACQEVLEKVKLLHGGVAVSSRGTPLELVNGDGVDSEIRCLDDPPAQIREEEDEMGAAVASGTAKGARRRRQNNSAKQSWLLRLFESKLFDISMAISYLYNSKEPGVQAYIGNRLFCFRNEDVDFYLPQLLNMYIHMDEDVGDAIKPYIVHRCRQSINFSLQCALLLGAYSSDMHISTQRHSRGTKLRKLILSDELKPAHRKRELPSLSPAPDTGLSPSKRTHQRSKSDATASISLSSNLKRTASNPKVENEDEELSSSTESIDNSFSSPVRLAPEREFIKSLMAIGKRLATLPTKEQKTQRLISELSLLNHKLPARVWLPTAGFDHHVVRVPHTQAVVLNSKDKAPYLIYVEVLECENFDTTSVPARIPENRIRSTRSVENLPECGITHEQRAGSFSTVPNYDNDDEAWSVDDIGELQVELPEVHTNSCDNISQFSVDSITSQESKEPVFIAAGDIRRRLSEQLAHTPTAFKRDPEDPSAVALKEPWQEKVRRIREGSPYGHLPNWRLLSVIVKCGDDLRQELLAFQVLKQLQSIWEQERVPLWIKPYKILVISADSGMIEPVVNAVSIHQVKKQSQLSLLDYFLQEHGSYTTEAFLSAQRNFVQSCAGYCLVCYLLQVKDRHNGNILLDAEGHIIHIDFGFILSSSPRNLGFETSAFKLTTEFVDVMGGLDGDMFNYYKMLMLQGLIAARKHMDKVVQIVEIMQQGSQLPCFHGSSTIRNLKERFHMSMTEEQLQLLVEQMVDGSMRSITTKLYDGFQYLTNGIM

IC50 (PI 3-kinase delta [1]) | IC50 (PI 3-kinase alpha [2]) | Assay M RLM CI(int) [3] | IC50 (PI 3-kinase delta [4]) | IC50 (PI 3-kinase gamma [5]) | IC50 (PI 3-kinase beta [6]) | IC50 (PI 4-kinase beta) | IC50 (PI 3-kinase alpha [7]) | IC50 [8] | IC50 (Vps34) | IC50 (PI 3-kinase gamma [9]) | IC50 (mTOR) | IC50 (PI 3-kinase beta [10]) | Compound
7420 nM | 1300 nM | <3.4 µL/min/mg | 1010 nM | 15 nM | > 10000 nM | > 9100 nM | 9360 nM | 803 nM | > 9100 nM | 504 nM | – | – | Cc1nnc(-c2nc(-c3cc(S(=O)(=O)N[C@H]4CC[C@H](O)CC4)ccc3C)cnc2N)o1 [Example 1, Trans-3-[5-Amino-6-(5-methyl-[1,3,4]oxadiazol-2-yl)-pyrazin-2-yl]-N-(4-hydroxy-cyclohexyl)-4-methyl-benzenesulfonamide]
830 nM | 120 nM | 40 µL/min/mg | 530 nM | – | > 10000 nM | 3000 nM | 130 nM | 970 nM | > 10000 nM | 36 nM | 1830 nM | 2250 nM | Cc1ccc(S(=O)(=O)NOC2CCOC2)cc1-c1cnc(N)c(-n2cncn2)n1 (centres unmarked) [Example 112.5, 3-(5-Amino-6-(1H-1,2,4-triazol-1-yl)pyrazin-2-yl)-4-methyl-N-((tetrahydrofuran-3-yl)oxy)benzenesulfonamide]
1070 nM | 820 nM | 25 µL/min/mg | 390 nM | 3 nM | > 10000 nM | > 9100 nM | 3180 nM | 687 nM | > 9100 nM | 147 nM | > 9100 nM | – | Cc1noc(-c2nc(-c3cc(S(=O)(=O)N[C@H]4CC[C@H](O)CC4)ccc3C)cnc2N)n1 [Example 2, Trans-3-[5-Amino-6-(3-methyl-[1,2,4]oxadiazol-5-yl)-pyrazin-2-yl]-N-(4-hydroxy-cyclohexyl)-4-methyl-benzenesulfonamide]
1200 nM | 400 nM | – | 290 nM | 31 nM | 4100 nM | 4050 nM | 1280 nM | 2090 nM | > 9100 nM | 65 nM | 8740 nM | 5780 nM | CCCn1cc(-c2nc(-c3cc(S(=O)(=O)NCCC(C)(C)O)ccc3C)cnc2N)cn1 [Example 119.25]
1120 nM | 440 nM | – | 130 nM | 12 nM | > 10000 nM | > 9100 nM | 990 nM | 1300 nM | > 9100 nM | 124 nM | > 9100 nM | > 9100 nM | CCc1noc(-c2nc(-c3cc(S(=O)(=O)NCCC(C)(C)O)ccc3C)cnc2N)n1 [Example 136, 3-(5-Amino-6-(3-ethyl-1,2,4-oxadiazol-5-yl)pyrazin-2-yl)-N-(3-hydroxy-3-methylbutyl)-4-methylbenzenesulfonamide]
3410 nM | 140 nM | – | 240 nM | 41 nM | > 10000 nM | > 9100 nM | 4700 nM | 200 nM | > 9100 nM | 117 nM | > 9100 nM | 2650 nM | Cc1ccc(S(=O)(=O)NCCC(C)(C)O)cc1-c1cnc(N)c(-c2cn(C)nc2C)n1 [Example 12, 3-(5-Amino-6-(1,3-dimethyl-1H-pyrazol-4-yl)pyrazin-2-yl)-N-(3-hydroxy-3-methylbutyl)-4-methyl benzenesulfonamide]
1010 nM | 390 nM | – | 90 nM | 10 nM | 6460 nM | > 9100 nM | 3010 nM | 447 nM | > 9100 nM | 106 nM | 6450 nM | > 9100 nM | Cc1ccc(S(=O)(=O)N[C@H]2CC[C@H](O)CC2)cc1-c1cnc(N)c(-c2nc(C(C)C)no2)n1 [Example 23, 3-[5-Amino-6-(3-isopropyl-[1,2,4]oxadiazol-5-yl)-pyrazin-2-yl]-N-(4-hydroxy-cyclohexyl)-4-methyl-benzene sulfonamide]
